Test results from PubChem BioAssay (NCI).
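Assay format: 96-well plates, 48-hour exposure. GI50: concentration for 50% inhibition of growth. TGI: total growth inhibition.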

Legend:
Experiment in all cases: DTP human tumour cell line panel, 48 h
786-0 renal = tested on: 786-0 renal
A498 renal = tested on: A498 renal
A549 NSCLC = tested on: A549 NSCLC
ACHN renal = tested on: ACHN renal
BT-549 breast = tested on: BT-549 breast
CAKI-1 renal = tested on: CAKI-1 renal
COLO 205 colon = tested on: COLO 205 colon
DU-145 prostate = tested on: DU-145 prostate
EKVX NSCLC = tested on: EKVX NSCLC
HCC-2998 colon = tested on: HCC-2998 colon
HCT-116 colon = tested on: HCT-116 colon
HCT-15 colon = tested on: HCT-15 colon
HL-60(TB) leukemia = tested on: HL-60(TB) leukemia
HOP-62 NSCLC = tested on: HOP-62 NSCLC
HS 578T breast = tested on: HS 578T breast
HT29 colon = tested on: HT29 colon
IGROV1 ovarian = tested on: IGROV1 ovarian
K-562 leukemia = tested on: K-562 leukemia
KM12 colon = tested on: KM12 colon
LOX IMVI melanoma = tested on: LOX IMVI melanoma
M14 melanoma = tested on: M14 melanoma
MALME-3M melanoma = tested on: MALME-3M melanoma
MCF7 breast = tested on: MCF7 breast
MDA-MB-231 breast = tested on: MDA-MB-231 breast
MDA-MB-435 = tested on: MDA-MB-435
MOLT-4 leukemia = tested on: MOLT-4 leukemia
NCI-H460 lung = tested on: NCI-H460 lung
NCI-H522 lung = tested on: NCI-H522 lung
NCI/ADR-RES ovarian = tested on: NCI/ADR-RES ovarian
OVCAR-3 ovarian = tested on: OVCAR-3 ovarian
OVCAR-4 ovarian = tested on: OVCAR-4 ovarian
OVCAR-5 ovarian = tested on: OVCAR-5 ovarian
OVCAR-8 ovarian = tested on: OVCAR-8 ovarian
PC-3 prostate = tested on: PC-3 prostate
RPMI-8226 leukemia = tested on: RPMI-8226 leukemia
RXF 393 renal = tested on: RXF 393 renal
SF-268 CNS = tested on: SF-268 CNS
SF-295 CNS = tested on: SF-295 CNS
SF-539 CNS = tested on: SF-539 CNS
SK-MEL-2 melanoma = tested on: SK-MEL-2 melanoma
SK-MEL-28 melanoma = tested on: SK-MEL-28 melanoma
SK-MEL-5 melanoma = tested on: SK-MEL-5 melanoma
SK-OV-3 ovarian = tested on: SK-OV-3 ovarian
SN12C renal = tested on: SN12C renal
SNB-19 CNS = tested on: SNB-19 CNS
SNB-75 CNS = tested on: SNB-75 CNS
SW-620 colon = tested on: SW-620 colon
T-47D breast = tested on: T-47D breast
TK-10 renal = tested on: TK-10 renal
U251 CNS = tested on: U251 CNS
UACC-62 melanoma = tested on: UACC-62 melanoma
UO-31 renal = tested on: UO-31 renal

`CC(C)(C)c1ccc(Oc2nccc(-c3c(-c4ccc(F)cc4)ncn3C3CCNCC3)n2)cc1` was tested, and the GI50 (786-0 renal) was 4.22 µM, the TGI (786-0 renal) was 8.12 µM and the GI50 (A498 renal) was 3.89 µM. The TGI (A498 renal) was 7.49 µM, the GI50 (A549 NSCLC) was 3.55 µM and the TGI (A549 NSCLC) was 6.9 µM. For the same compound, the GI50 (ACHN renal) was 3.49 µM, the TGI (ACHN renal) was 6.78 µM and the GI50 (BT-549 breast) was 4.1 µM. For the same compound, the TGI (BT-549 breast) was 7.6 µM, the GI50 (CAKI-1 renal) was 3.96 µM and the TGI (CAKI-1 renal) was 7.64 µM. It also gave a GI50 (COLO 205 colon) of 3.69 µM, a TGI (COLO 205 colon) of 7.46 µM and a GI50 (DU-145 prostate) of 3.71 µM. It also gave a TGI (DU-145 prostate) of 7.06 µM, a GI50 (EKVX NSCLC) of 3.6 µM and a TGI (EKVX NSCLC) of 7.36 µM. It also gave a GI50 (HCC-2998 colon) of 1.38 µM, a TGI (HCC-2998 colon) of 4.98 µM and a GI50 (HCT-116 colon) of 3.58 µM. The TGI (HCT-116 colon) was 7.07 µM, the GI50 (HCT-15 colon) was 3.23 µM and the TGI (HCT-15 colon) was 6.68 µM. For the same compound, the GI50 (HL-60(TB) leukemia) was 4.64 µM, the TGI (HL-60(TB) leukemia) was 9.1 µM and the GI50 (HOP-62 NSCLC) was 4.25 µM. For the same compound, the TGI (HOP-62 NSCLC) was 7.88 µM, the GI50 (HS 578T breast) was 5.1 µM and the TGI (HS 578T breast) was 13.1 µM. It also gave a GI50 (HT29 colon) of 1.03 µM, a TGI (HT29 colon) of 4.17 µM and a GI50 (IGROV1 ovarian) of 3.86 µM. For the same compound, the TGI (IGROV1 ovarian) was 8.01 µM, the GI50 (K-562 leukemia) was 0.849 µM and the TGI (K-562 leukemia) was 4.7 µM. It also gave a GI50 (KM12 colon) of 3.95 µM, a TGI (KM12 colon) of 7.61 µM and a GI50 (LOX IMVI melanoma) of 3.43 µM. It also gave a TGI (LOX IMVI melanoma) of 7.49 µM, a GI50 (M14 melanoma) of 4.5 µM and a TGI (M14 melanoma) of 8.46 µM. The GI50 (MALME-3M melanoma) was 4.94 µM, the TGI (MALME-3M melanoma) was 9.38 µM and the GI50 (MCF7 breast) was 3.86 µM. It also gave a TGI (MCF7 breast) of 7.77 µM, a GI50 (MDA-MB-231 breast) of 3.87 µM and a TGI (MDA-MB-231 breast) of 7.39 µM. The GI50 (MDA-MB-435) was 3.53 µM, the TGI (MDA-MB-435) was 7.04 µM and the GI50 (MOLT-4 leukemia) was 2.93 µM. It also gave a TGI (MOLT-4 leukemia) of 7.13 µM, a GI50 (NCI-H460 lung) of 3.91 µM and a TGI (NCI-H460 lung) of 8.21 µM. For the same compound, the GI50 (NCI-H522 lung) was 4.69 µM, the TGI (NCI-H522 lung) was 8.58 µM and the GI50 (NCI/ADR-RES ovarian) was 3.39 µM. It also gave a TGI (NCI/ADR-RES ovarian) of 7 µM, a GI50 (OVCAR-3 ovarian) of 4.25 µM and a TGI (OVCAR-3 ovarian) of 7.77 µM. It also gave a GI50 (OVCAR-4 ovarian) of 3.61 µM, a TGI (OVCAR-4 ovarian) of 7.32 µM and a GI50 (OVCAR-5 ovarian) of 4.26 µM. For the same compound, the TGI (OVCAR-5 ovarian) was 7.76 µM, the GI50 (OVCAR-8 ovarian) was 3.72 µM and the TGI (OVCAR-8 ovarian) was 7.36 µM. The GI50 (PC-3 prostate) was 2.88 µM, the TGI (PC-3 prostate) was 6.19 µM and the GI50 (RPMI-8226 leukemia) was 3.56 µM. The TGI (RPMI-8226 leukemia) was 7.97 µM, the GI50 (RXF 393 renal) was 3.22 µM and the TGI (RXF 393 renal) was 7.07 µM. For the same compound, the GI50 (SF-268 CNS) was 3.34 µM, the TGI (SF-268 CNS) was 7.07 µM and the GI50 (SF-295 CNS) was 4.65 µM. It also gave a TGI (SF-295 CNS) of 8.68 µM, a GI50 (SF-539 CNS) of 4.38 µM and a TGI (SF-539 CNS) of 8.03 µM. For the same compound, the GI50 (SK-MEL-2 melanoma) was 5.21 µM, the TGI (SK-MEL-2 melanoma) was 9.1 µM and the GI50 (SK-MEL-28 melanoma) was 4.29 µM. It also gave a TGI (SK-MEL-28 melanoma) of 8.06 µM, a GI50 (SK-MEL-5 melanoma) of 3.68 µM and a TGI (SK-MEL-5 melanoma) of 7.03 µM. It also gave a GI50 (SK-OV-3 ovarian) of 4.35 µM, a TGI (SK-OV-3 ovarian) of 7.8 µM and a GI50 (SN12C renal) of 3.65 µM. For the same compound, the TGI (SN12C renal) was 7.06 µM, the GI50 (SNB-19 CNS) was 3.73 µM and the TGI (SNB-19 CNS) was 7.42 µM. For the same compound, the GI50 (SNB-75 CNS) was 2.89 µM, the TGI (SNB-75 CNS) was 6.15 µM and the GI50 (SW-620 colon) was 3.96 µM. The TGI (SW-620 colon) was 7.82 µM, the GI50 (T-47D breast) was 4.46 µM and the TGI (T-47D breast) was 8.56 µM. For the same compound, the GI50 (TK-10 renal) was 4.4 µM, the TGI (TK-10 renal) was 8.04 µM and the GI50 (U251 CNS) was 3.23 µM. For the same compound, the TGI (U251 CNS) was 6.49 µM, the GI50 (UACC-62 melanoma) was 4.25 µM and the TGI (UACC-62 melanoma) was 7.77 µM. For the same compound, the GI50 (UO-31 renal) was 2.61 µM and the TGI (UO-31 renal) was 6.61 µM.
